Data on eight molecules can be found in PubChem BioAssay (NCI).

Molecules are shown by their SMILES.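 In this assay, cells in 96-well plates receive the compound at five concentrations for 48 hours. Endpoints are linearly interpolated between the surrounding concentrations. GI50 = concentration required for 50% inhibition of growth. TGI marks complete inhibition of growth.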

Common to all, as to test: inhibition of tumour cell growth, NCI panel, 48 h
Test [1] deals with HOP-62 NSCLC.
Test [2] concerns HL-60(TB) leukemia.
Test [3] relates to LOX IMVI melanoma.
In test [4] the test system is MDA-MB-231 breast.
Test [5] concerns MDA-MB-435.
Test [6] concerns SW-620 colon.
Test [7] has as its system DU-145 prostate.
The test system of test [8] is ACHN renal.
The test system of test [9] is A549 NSCLC.
Test [10] concerns CCRF-CEM leukemia.

Consider `CCOC1OC(=O)[C@H]2[C@@H]1[C@@H]1CC[C@H]2O1` (some centres undefined), for which the GI50 in [1], in test [2], in test [3], in test [4], in [5] and in test [6] was greater than 100 µM each time. Further, the GI50 in test [7], in test [8], in test [9] and in [10] was greater than 100 µM in each case. Besides, the TGI in test [1], in [2], in [3], in test [4], in test [5] and in [6] was greater than 100 µM each time. Also, the TGI in [7], in test [8], in [9] and in [10] was greater than 100 µM each time.

With `O=C(Nc1cnc(C(F)(F)F)cn1)c1cc(Cl)ccc1O`, the GI50 was 0.266 µM in test [1]; 0.279 µM in test [2]; 0.291 µM in test [3]; 0.27 µM in test [4]; 0.318 µM in test [5]; 0.348 µM in test [6]. Further, the GI50 was 0.348 µM in test [7], 0.269 µM in test [8], 0.377 µM in test [9] and 0.406 µM in [10]. For the same molecule, the TGI in test [1] is 2.35 µM; in test [2] it was 0.654 µM; in [3], 1.75 µM; in test [4], 0.946 µM; in [5] it was 3.23 µM; in test [6] it was greater than 100 µM. For the same molecule, the TGI in test [7] was greater than 100 µM; in test [8] it was 1.16 µM; in test [9], greater than 100 µM; in test [10], greater than 100 µM.

For the molecule `Cn1nnc2c(C(N)=O)ncn2c1=O`, the TGI in [1], in test [2], in test [3], in test [4], in test [5] and in test [6] was greater than 100 µM throughout. Also, the TGI in test [7], in [8], in test [9] and in [10] was greater than 100 µM in each case.

For `Oc1c(Cl)cc(Cl)c2cccnc12`, the GI50 in test [1] is 2.24 µM; in test [2], 2.87 µM; in test [3], 2.18 µM; in test [4], 3.04 µM; in test [5], 3.84 µM; in test [6], 4.47 µM. For the same molecule, the GI50 in [7] was 4.51 µM; in [8] it was 3.78 µM; in [9], 3.49 µM; in test [10] it was 2.75 µM. The TGI in test [1] was 21.1 µM; in [2], 6.65 µM; in test [3], 15.7 µM; in test [4] it was 18.3 µM; in test [5] it was greater than 100 µM; in test [6], 18.4 µM. The TGI was 45.7 µM in test [7], 40.5 µM in test [8], 29.6 µM in test [9] and greater than 100 µM in [10].

In the case of `CN(c1ccc(C#N)c(Cl)c1)C1CCC(NC(=O)c2ccc(N3CCN(C4CN(c5ccc6c(c5)C(=O)N(C5CCC(=O)NC5=O)C6=O)C4)CC3)cc2)CC1` (centres undefined), the GI50 in [1] was greater than 100 µM; in test [2] it was greater than 100 µM; in [3] it was greater than 100 µM; in test [4], 18.9 µM; in [5] it was greater than 100 µM; in test [6], greater than 100 µM. The GI50 in test [7], in [8], in test [9] and in test [10] was greater than 100 µM each time. Moreover, the TGI is greater than 100 µM in test [1]; greater than 100 µM in [2]; greater than 100 µM in [3]; 41.6 µM in [4]; greater than 100 µM in test [5]; greater than 100 µM in test [6]. For the same molecule, the TGI in test [7], in test [8], in [9] and in test [10] was greater than 100 µM in each case.

Consider `O=C1/C(=C/c2cccc(Br)c2)COc2ccc(O)c(O)c21`, for which the GI50 in test [1] is 1.84 µM; in test [2], 0.969 µM; in test [3], 0.658 µM; in test [4], 1.4 µM; in test [5] it was 1.23 µM; in test [6], 1.06 µM. The GI50 was 1.42 µM in [7], 1.24 µM in test [8], 1.83 µM in test [9] and 0.312 µM in test [10]. The TGI in test [1] came out at 3.74 µM; in test [2], 4.05 µM; in [3] it was 2.04 µM; in test [4], 3.35 µM; in test [5], 2.76 µM; in [6], 3.52 µM. Moreover, the TGI in test [7] stood at 2.99 µM; in test [8] it was 2.5 µM; in test [9] it was 4.82 µM; in test [10], 1.69 µM.

Take `Nc1n[nH]c(N)c1N=Nc1ccc(O)cc1`: the GI50 in [1] is 31.8 µM; in test [2], 6.44 µM; in test [3] it was 4.09 µM; in test [4] it was 16.8 µM; in test [5] it was 17.1 µM; in test [6] it was 26.3 µM. Also, the GI50 in test [7] is 17 µM; in [8], 15.6 µM; in test [9], 22.5 µM; in [10] it was 20 µM. Besides, the TGI in [1] is greater than 100 µM; in [2] it was 35.4 µM; in test [3] it was 53.6 µM; in [4], 82.8 µM; in test [5], 59.4 µM; in test [6], 84.8 µM. In addition, the TGI in test [7] is 62.5 µM; in [8] it was 61.1 µM; in test [9], greater than 100 µM; in [10] it was 63 µM.

Take `O=c1cccc(C#CC#CCCCO)o1`: the GI50 was 6.26 µM in test [1]; 2.24 µM in test [2]; 2.51 µM in test [3]; 1.99 µM in test [4]; 4.99 µM in [5]; 2.67 µM in test [6]. The GI50 is 2.37 µM in test [7], 12.4 µM in test [8], 17.8 µM in [9] and 5.73 µM in [10]. Moreover, the TGI in test [1] is 12.2 µM; in test [2], 5.39 µM; in test [3], greater than 27.9 µM; in [4], 4.82 µM; in test [5] it was 13.6 µM; in test [7], 5.86 µM. In addition, the values for the TGI in test [8], in test [9] and in test [10] were 24.9 µM, greater than 58.8 µM and greater than 100 µM, respectively.
